Each block holds one molecule with its values, some of them ahead of it.
Assays:
[1] = tested on: CXCR1; test: Chemotaxis assay, THP-1 cells toward CXCL8 (CXCR1-mediated); format: cell-based, human; details: CXCL8 10 nM, FIG. 13B
Procedure: (§1) Cell migration was measured employing the Neuroprobe (Gaithersburg, MD, USA) ChemoTx® Disposable Chemotaxis System. A 96-well Boyden-chamber (30 μL/well, 8 μm pores, 1×10^5 pores/cm^2 pore density) was selected for all chemotaxis experiments. Bottom wells of the Boyden-chamber were loaded with 30 μL of test substances at various concentrations. Top wells of the membrane were loaded with 25 μL of THP-1 cells, THP-1_ADRA1B^KO, wild type THP-1 cells after clonal expansion (=control for THP-1_ADRA1B^KO) or freshly isolated monocytes (200 cells/μL). THP-1 cells were suspended in depleted RPMI1640 (0.5% HyClone™ fetal bovine serum, Sigma); Freshly isolated monocytes were suspended in RPMI1640 (0.5% human platelet poor plasma, Sigma). After 3 hours, transmigrated cells were counted utilizing the Cytation 1 plate reader (BioTek) by direct imaging in high contrast bright field (4×) and post-imaging particle analyses with Gen5 (v3.05) Imaging & Microscopy Software (BioTek). The chemotactic index (CI) was calculated as the ratio of cells that transmigrated in the presence versus the absence of the test solutions.

[2] = target: T1, CCR2 (Homo sapiens, UniProt P41597); test: BRET assay for β-arrestin recruitment, HEK293T with CCR2-Rluc and β-arrestin-YFP without α1b-AR; format: cell-based; details: 10 μM PE, PT or 100 nM INCB3284, FIG. 5C
Procedure: β-arrestin recruitment was measured by BRET, as described (Armando, 2014; Berchiche, 2011). In brief, HEK293T cells were plated in a 6-well plate and transfected with 0.1 μg of CCR2-RluII and 1.9 μg β-arrestin-YFP with 0.1 μg pcDNA3.1 or α1b-AR. One day after transfection, cells were re-plated into 96-well poly-L lysine precoated plates. After overnight incubation, cells were replaced with 0.1% glucose/PBS. Coelenterazine H in a final concentration of 5 μM was added to cells and incubated at room temperature for 3 min. […] The BRET changes were calculated by subtracting the BRET signal of untreated cells.

[3] = target: T1, CCR2; test: Chemotaxis assay, THP-1 cells toward CCL2 (CCR2-mediated); format: cell-based; parameters: host or cells: THP-1; details: CCL2 10 nM, FIG. 23E
Procedure: as §1

[4] = target: T1, CCR2; test: Gαi activation assay (TRUPATH BRET), HEK293T cells transfected with CCR2 plus pcDNA3 (CCR2 alone); format: cell-based; details: cells transfected with CCR2 alone; 10 μM PE or PT; FIG. 4B, 4E
Procedure: HEK293T cells were plated in a 6-well plate and transfected with 0.2 μg each of Gαi1-Rluc8, Gβ3 and Gγ9-GFP2 (Trupath) together with 0.2 μg of mouse or human CCR2 with either pcDNA3.1 or α1b-AR. One day after transfection, cells were trypsinized and replated to 96-well poly-L lysine precoated plates. After overnight incubation, cells were replaced with 0.1% glucose/PBS. Prolume Purple (NanoLight Tech.) or coelenterazine 400a in a final concentration of 5 μM were added in experiments with human or mouse CCR2, respectively, and incubated at room temperature for 3 min. Ligands at various concentrations were added to cells and incubated at room temperature for 5 min before luminescence was measured at 410 nm and 515 nm. […] The BRET changes were calculated by subtracting the BRET signal of untreated cells.

[5] = tested on: THP-1 cells (CCR2-mediated Gαi signaling); test: Cyclic AMP measurement in forskolin-stimulated THP-1 cells; format: cell-based, human; details: forskolin-stimulated THP-1 cells; 1 μM PE, 1 μM PT or 100 nM NE; 15 min at 37° C.; FIG. 4G, 4H
Procedure: (§2) Cyclic AMP amounts were measured using the cAMP complete enzyme immunoassay kit, acetylated format (Enzo Life Sciences). 4×10^5 cells were incubated with forskolin/isobutylmethylxanthine (10 μM/0.5 mM final concentrations) in 0.1% BSA/10 mM Hepes-buffered RPMI and treated with CCL2 in the presence or absence of 1 μM PE, 1 μM PT or 100 nM NE at 37° C. for 15 min. The cells were lysed by incubating with 0.1 M HCl at room temperature for 20 min. The cAMP amounts in the lysate supernatant were measured following the manufacturer's instructions.

[6] = tested on: AVPR1A heteromerization partners CCR2, CCR8 and CXCR4; test: Chemotaxis assay, THP-1 cells, AVPR1A heteromerization partners CCR2, CCR8 and CXCR4; format: cell-based; details: Homo sapiens, FIG. 13A, 13C, read-out: IC50, inhibition of chemotaxis mediated via CCR2, CCR8 and CXCR4
[7] = tested on: THP-1_ADRA1B^KO cells; test: Cyclic AMP measurement in forskolin-stimulated THP-1_ADRA1B^KO cells; format: cell-based, human; details: 100 nM CCL1, 15 min at 37° C.; FIG. 2B
Procedure: as §2

T1 sequence (P41597 whole entry): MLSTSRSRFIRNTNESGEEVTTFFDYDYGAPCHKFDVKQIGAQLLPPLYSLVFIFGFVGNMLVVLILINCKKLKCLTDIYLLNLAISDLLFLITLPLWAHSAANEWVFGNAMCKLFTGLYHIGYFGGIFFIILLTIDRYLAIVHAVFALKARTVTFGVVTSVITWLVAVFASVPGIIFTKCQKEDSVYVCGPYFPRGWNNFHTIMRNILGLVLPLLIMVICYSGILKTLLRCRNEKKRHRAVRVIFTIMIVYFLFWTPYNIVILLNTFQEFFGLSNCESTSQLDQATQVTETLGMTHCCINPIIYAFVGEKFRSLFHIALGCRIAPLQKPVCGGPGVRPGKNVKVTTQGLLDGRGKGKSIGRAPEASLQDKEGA

Molecule: NC(=O)CC[C@@H]1NC(=O)[C@H](Cc2ccccc2)NC(=O)[C@H](Cc2ccc(O)cc2)NC(=O)[C@@H](N)CSSC[C@@H](C(=O)N2CCC[C@H]2C(=O)N[C@@H](CCCN=C(N)N)C(=O)NCC(N)=O)NC(=O)[C@H](CC(N)=O)NC1=O [AVP, arginine vasopressin]
- chemotaxis mediated by CXCR1 [1]: did not affect

Molecule: COc1ccc(C2(O)CCC(N3CC[C@@H](NC(=O)CNC(=O)c4cccc(C(F)(F)F)c4)C3)CC2)cn1 (stereo partly shown) [INCB3284]
- effect on the CCL2-induced BRET signal (CCR2-Rluc / β-arrestin-YFP) [2]: could be inhibited
- inhibition of CCL2-induced chemotaxis [3]: more than 95%

- effect on CCL2-induced Gαi1 activation [4]: did not affect
Molecule: NC[C@H](O)c1ccc(O)c(O)c1 [norepinephrine]
- effect on the effects of CCL2 on cAMP production [5]: inhibited the effects of CCL2 on cAMP production

- IC50 [6]: 0.037 to 0.218 nM
Molecule: Cc1nc2c([nH]1)-c1ccccc1N(C(=O)c1ccc(NC(=O)c3ccccc3-c3ccccc3)cc1)CC2 [Conivaptan]

B1: CCL1: Chemokine (C-C motif) ligand 1, selective agonist of CCR8 (protein, UniProt P22362 24-96, looked up)
C-C motif chemokine 1: KSMQVPFSRCCFSFAEQEIPLRAILCYRNTSSICSNEGLIFKLKRGKEACALDTVGWVQRHRKMLRHCPSKRK
- inhibition of forskolin-stimulated cAMP production by CCL1, THP1 vs THP-1_ADRA1B^KO cells [7]: indistinguishable

From patent US20250213647A1, “CHEMOKINE RECEPTORS AND ALPHA1 ADRENERGIC RECEPTORS/VASOPRESSIN RECEPTORS 1A HETEROMERS AS DRUG TARGETS FOR DISEASE” (UNIVERSITY OF SOUTH FLORIDA, priority 2022, published 2025)
